{"source": "patent US5985926A", "about": "“Method for inhibiting intracellular viral replication” (Cell Therapeutics, Inc., priority 1997, dated 1999)", "key": {"293-EBNA cells": {"system": "293-EBNA cells", "assay": "Viability of 293-EBNA cells, Alamar Blue", "assay_type": "cell-based, human", "method_in_brief": "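Viability read with Alamar Blue, a vital dye reduced by mitochondrial dehydrogenases to a soluble product. Signal quantified as the absorbance difference between A570 and A600.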"}, "[1]": {"system": "HIV-1 in U1 cells (constitutive expression)", "assay": "Constitutive HIV-1 p24 antigen expression in chronically infected U1 cells", "assay_type": "cell-based, HIV-1; human cells", "conditions": "for suppression of constitutive HIV-1 expression (p24): U1 cells plated at high density, in words", "experimental": "(§1) Another assay examined the effect of compounds on chronically HIV-1 infected U1 cells. A relatively high density of U1 cells at 10^4 cells/well were incubated in the absence or presence of compounds for 4 days. HIV-1 p24 antigen expression in the culture media was measured by using a ELISA kit (Abbott). Alternatively, U1 cells were plated at a relatively low density of 2×10^3 cell/well plus or minus TNF at 20 pg/ml and plus or minus compounds. The expression of HIV-1 p24 antigen in culture media was measured by ELISA four days later.\n(§2) Stable cell lines 293tar, 293tat and 293tat2 were generated by transfections using conditions described in (Tate et al., FASEB J. 4:227-231, 1990) with the plasmid pHIV.AP alone or along with either pHIV.tat or pSV2tat72, respectively. The assay of HIV-1 p24 antigen expression in the chronically HIV-1-infected promonocytic line U1 after 4 days and in acutely infected peripheral blood lymphocytes (PBL) after 7 days were described (Peterson et al., J. Clin. Invest. 89:574-580, 1992, and Brighty et al., Proc Natl. Acad. Sci. USA 88:7802-7805, 1991).\n(§3) This example illustrates that CT2576 inhibited both constitutive and cytokine-induced HIV expression in a chronically-infected U1 cell line. A chronically HIV-1 infected human promonocyte cell line, U1 (Poli et al., J. Exp. Med. 172:151-158, 1990), was used as a model to see if the inhibitory effect of CT2576 on HIV-LTR driven reporter gene expression could be extended to block HIV replication per se in infected cells. TNF-α and IL-6 have been reported to upregulate the expression of HIV-1 in U1 cells (Poli et al., Proc Natl. Acad. Sci. USA 91:108-112, 1994). U1 cells were plated onto 24-well microtiter plates to study the dose-response effect of CT2576 on the constitutive (10^4 cells/well), TNF-α or IL-6 mediated (2×10^3 cells/well) expression of HIV-1. CT2576 was capable of inhibiting the constitutive, the TNF-α mediated, as well as the IL-6 mediated expression of HIV in U1 cells with an IC50 value of less than 1 μM (FIG. 17)."}, "[2]": {"system": "HIV-1 in U1 cells (TNF-α mediated expression)", "assay": "TNF-α-mediated HIV-1 p24 antigen expression in chronically infected U1 cells", "assay_type": "cell-based, HIV-1; human cells", "conditions": "for suppression of TNFα-mediated HIV-1 expression (p24): in words", "experimental": "as §1, §2, §3"}, "U1 cells": {"system": "U1 cells", "assay": "Cytotoxicity in U1 cells", "assay_type": "cell-based, human", "source_text": "We studied the effect of CT-2576 on HIV expression in a chronically HIV-1 infected promonocytic U1 cell line (Folks et al., Science 238:800-802, 1987). […] TNF-α and other cytokines can induce HIV expression in U1 cells. U1 cells also express HIV constitutively when grown to a relatively high density. […] An inhibitor of viral reverse transcriptase is expected to only protect new cells from becoming infected but not to affect viral production from cells already infected with HIV. […] While TNF-α induces HIV expression through activation of NFκB, IL-6 and IL-1 also stimulates HIV expression through other pathways independent of NFκB activation in U1 cells."}, "293tat cells": {"system": "293tat cells", "assay": "Viability of 293tat cells, Alamar Blue", "assay_type": "cell-based, human", "experimental": "293tat cells, a cell line stably transfected with the expression plasmids pHIV.AP and pHIV.tat, were plated onto 96-well microtiter plates at 2000 cells per well. The media were changed the next day and CT2576 was added at the indicated concentrations to the fresh media with or without TNF-α (20 ng/ml). 2 μl of medium from each well was used for AP assay 24 hr later. After culture media were withdrawn for AP assay, cytotoxicity was measured for the same cell cultures using an indicator dye, Alamar Blue™, that would change color in response to the reduction potential of cell medium due to cell growth. The left y-axis refers to the absorbance value of the reduced form of Alamar Blue™ at 570 nm with the background absorbance at 600 nm from the oxidized form of Alamar Blue™ subtracted. Each data point represents the mean of triplicate samples with error bar indicating the standard deviation of the mean.\nThe effect of CT2576 on HIV promoter activity in 293tat cells, with the HIV.AP construct cotransfected with pHIV.tat, is shown in FIG. 15. CT2576 inhibited AP reporter gene expression by 50% with an inhibition constant (IC50) in the range of 10 μM with or without TNF-α induction. The inhibition of AP expression is the result of two events: a decrease in AP expression and a decrease in tat expression and therefore lower tat protein levels for transactivation. […]"}}, "note": "Entries after “also recorded” stand apart in the source; their conditions may differ. Read-outs that look alike come from different tables or passages of the source."}
{"compound": "CCCCCCCCNCC(O)CCCCCCCCCN1C(=O)CCN(C)C1=O", "note": "(centres unmarked) [CT1829, 3-(11-octylamino-10-hydroxyundecyl)-1-methyldihydrouracil]", "values": [{"measurement": "cytotoxic effect on 293-EBNA cells (Alamar Blue)", "setting": "293-EBNA cells", "value": "no significant cytotoxic effect"}, {"measurement": "suppression of constitutive HIV-1 expression (p24)", "setting": "[1]", "value": "suppressed constitutive HIV-1 expression"}, {"measurement": "suppression of TNFα-mediated HIV-1 expression (p24)", "setting": "[2]; U1 cells", "value": "suppressed HIV-1 expression"}, {"measurement": "cytotoxicity in U1 cells at 25 μM", "setting": "U1 cells; 25 μM, FIG. 12 bottom panel, TNFα", "value": "some cytotoxicity"}]}
{"compound": "CCCCCCCCNCC(O)CCCCCCCCCn1c(=O)c2c(ncn2C)n(C)c1=O", "note": "(centres unmarked) [CT2576, 1-(11-octylamino-10-hydroxyundecyl)-3,7-dimethylxanthine]", "values": [{"measurement": "toxic concentration (not toxic at concentrations up to), 293-EBNA cells", "setting": "293-EBNA cells", "value": "> 35", "unit": "µM"}, {"measurement": "IC50", "setting": "[1]; Human immunodeficiency virus 1, 96 h, read-out: IC50, constitutive HIV expression, U1 cells, 4 days", "value": "~1000", "unit": "nM"}, {"measurement": "suppression of constitutive HIV-1 expression (p24)", "setting": "[1]", "value": "the most effective; also recorded: inhibited; also recorded: suppressed constitutive HIV-1 expression"}, {"measurement": "IC50", "setting": "[1]; read-out: IC50, constitutive HIV expression, U1 cells, 4 days", "value": "< 1000", "unit": "nM"}, {"measurement": "IC50", "setting": "[2]; Human immunodeficiency virus 1, 96 h, read-out: IC50, TNF-α mediated HIV expression, U1 cells, 4 days", "value": "~1000", "unit": "nM"}, {"measurement": "IC50", "setting": "[2]; U1 cells, 4 days, read-out: IC50, TNF-α mediated HIV expression", "value": "< 1000", "unit": "nM"}, {"measurement": "suppression of TNFα-mediated HIV-1 expression (p24)", "setting": "[2]; U1 cells", "value": "suppressed HIV-1 expression; also recorded: the most effective; also recorded: inhibited"}, {"measurement": "cytotoxicity in U1 cells, trypan-blue dye exclusion", "setting": "U1 cells; trypan-blue dye exclusion assay", "value": "no cytotoxicity"}, {"measurement": "cytotoxic concentration (not cytotoxic at concentrations up to), 293tat cells", "setting": "293tat cells; Alamar Blue", "value": "> 32", "unit": "µM"}, {"measurement": "cytotoxic effect, 293tat cells", "setting": "293tat cells; in words", "value": "minimal cytotoxic effect"}]}
